Results from PubChem BioAssay (NCI).
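Exposure lasted 48 hours, with cells grown in 96-well plates and compounds tested at five concentrations. At the TGI there is no net growth.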

Columns and labels:
Assay in all cases: NCI anticancer screen, dose series, 48 h
SR leukemia = test system: SR leukemia
RPMI-8226 leukemia = test system: RPMI-8226 leukemia
COLO 205 colon = test system: COLO 205 colon
HT29 colon = test system: HT29 colon
RXF 393 renal = test system: RXF 393 renal
MALME-3M melanoma = test system: MALME-3M melanoma
OVCAR-4 ovarian = test system: OVCAR-4 ovarian
UACC-62 melanoma = test system: UACC-62 melanoma
CCRF-CEM leukemia = test system: CCRF-CEM leukemia
DU-145 prostate = test system: DU-145 prostate
U251 CNS = test system: U251 CNS
LOX IMVI melanoma = test system: LOX IMVI melanoma
SF-295 CNS = test system: SF-295 CNS
SK-MEL-28 melanoma = test system: SK-MEL-28 melanoma
PC-3 prostate = test system: PC-3 prostate
HL-60(TB) leukemia = test system: HL-60(TB) leukemia
BT-549 breast = test system: BT-549 breast
EKVX NSCLC = test system: EKVX NSCLC
SNB-75 CNS = test system: SNB-75 CNS
NCI-H522 lung = test system: NCI-H522 lung

| Structure (SMILES) | TGI (SR leukemia) [µM] | TGI (RPMI-8226 leukemia) [µM] | TGI (COLO 205 colon) [µM] | TGI (HT29 colon) [µM] | TGI (RXF 393 renal) [µM] | TGI (MALME-3M melanoma) [µM] | TGI (OVCAR-4 ovarian) [µM] | TGI (UACC-62 melanoma) [µM] | TGI (CCRF-CEM leukemia) [µM] | TGI (DU-145 prostate) [µM] | TGI (U251 CNS) [µM] | TGI (LOX IMVI melanoma) [µM] | TGI (SF-295 CNS) [µM] | TGI (SK-MEL-28 melanoma) [µM] | TGI (PC-3 prostate) [µM] | TGI (HL-60(TB) leukemia) [µM] | TGI (BT-549 breast) [µM] | TGI (EKVX NSCLC) [µM] | TGI (SNB-75 CNS) [µM] | TGI (NCI-H522 lung) [µM] |
| --- | --- | --- | --- | --- | --- | --- | --- | --- | --- | --- | --- | --- | --- | --- | --- | --- | --- | --- | --- | --- |
| CCOC(=O)n1[nH]c(=O)n(-c2ccccc2)c1=O | > 100 | > 100 | > 100 | > 100 | > 100 | > 100 | > 100 | > 100 | > 100 | > 100 | > 100 | > 100 | > 100 | > 100 | > 100 | > 100 | > 100 | > 100 | > 100 |  |
| CC(=O)OCC1OC(n2c(C)c(N=Nc3ccccc3)c(C)c(C#N)c2=S)C(OC(C)=O)C(OC(C)=O)C1OC(C)=O (stereo not drawn) | > 100 | > 100 | > 100 | > 100 | 32.4 | > 100 | > 100 | 33.3 | > 100 | > 100 |  | > 100 | 44.1 | > 100 | > 100 | > 100 | > 100 |  | 7.03 |  |
| O=C(Cn1cc(-c2ccccc2)nn1)NC1CCCC1 | > 100 | > 100 | > 100 | > 100 |  | > 100 | > 100 |  | > 100 | > 100 | > 100 | > 100 | > 100 | > 100 | > 100 | > 100 | > 100 | > 100 | > 100 | > 100 |
| Cc1ccc2c(=O)cc(-c3cccc4ccccc34)[nH]c2n1 | > 100 |  | 0.676 | 0.0658 | > 100 | 0.0495 | > 85.1 | > 100 | > 100 | > 74.7 | 1.64 | 9.5 | > 100 | > 100 | > 43 | 0.0318 | > 94.6 | > 100 |  |  |
| CCCCOC(=O)C1CN2C=CC=NC2=NC1(C(F)(F)F)C(F)(F)F (stereo not drawn) |  | > 100 | > 100 | > 100 | > 100 | > 100 | > 100 | > 100 | > 100 | > 100 | > 100 | > 100 | > 100 | > 100 | > 100 | > 100 | > 100 | > 100 | > 100 |  |
| COc1ccc(CNc2nc3cc(C(F)(F)F)ccc3nc2C(=O)O)cc1OC | 63.8 | 94.6 | 57.7 | > 100 |  |  | > 100 | 45.6 | 92.9 | > 100 | 73.5 | > 100 | > 100 | > 100 | > 100 |  | > 100 | > 100 | > 100 |  |
| C=C(C)CC1=C(OCC)C(OC)(OCC)C1=O (stereo not drawn) |  |  | > 100 | > 100 |  |  | > 100 | > 100 | > 100 | > 100 | > 100 | > 100 | > 100 | > 100 | > 100 | > 100 | > 100 | > 100 | > 100 | > 100 |
| NNC(=O)c1ccccc1Nc1ccccc1C(=O)NN |  | > 100 | > 100 | > 100 | > 100 | > 100 | > 100 | > 100 | > 100 | > 100 | > 100 | > 100 | > 100 | > 100 | > 100 | > 100 | > 100 | > 100 | > 100 | > 100 |
| C=CC1ON(C)CCc2cc(OC)c(OC)cc21 (stereo not drawn) | > 100 | > 100 | > 100 | > 100 |  | > 100 |  | > 100 | > 100 | > 100 | > 100 | > 100 | > 100 | > 100 | > 100 | > 100 | > 100 | > 100 | > 100 | > 100 |
| COc1ccccc1C(C1=C(O)COC1=O)c1cc2c(cc1OC(C)=O)OCO2 (stereo not drawn) | > 100 | > 100 | > 100 | > 100 | > 100 | > 100 | > 100 | > 100 | > 100 | > 100 | > 100 | > 100 | > 100 | > 100 | > 100 | > 100 | > 100 | > 100 | > 100 |  |
| Cc1ccc(S(=O)(=O)OC2=C/C(=N\c3onc(C)c3C)c3ccccc3C2=O)cc1 | > 100 | 53.8 | > 100 | > 100 |  | 43.3 | 29.9 | 57.7 |  | > 100 | 21.1 | 37.9 | > 100 | > 100 | 40.1 | > 100 | 71.9 | > 100 | > 100 | 21.1 |
| OC(c1cccnc1)C(F)(F)c1nc2ccccc2o1 (stereo not drawn) | > 100 | > 100 | > 100 | > 100 | > 100 |  | > 100 | > 100 | > 100 | > 100 | > 100 | > 100 |  | > 100 | > 100 | > 100 | > 100 | > 100 | > 100 |  |
| COC(=O)C[C@@H]1C(C)(C)[C@@H]2O[C@@]34C[C@@H]2C(=O)[C@]1(C)[C@H]3CC[C@@]1(C)[C@H](c2ccoc2)OC(=O)C[C@]14O | > 100 | > 100 | > 100 | > 100 |  | > 100 | > 100 | > 100 | > 100 | > 100 | > 100 | > 100 | > 100 | > 100 | > 100 | > 100 | > 100 | > 100 | > 100 | > 100 |
| CCOC(=O)CC(=O)C(=O)NNC1=NCCCN1 | > 100 | > 100 | > 100 | > 100 | > 100 | > 100 | > 100 | > 100 | > 100 | > 100 | > 100 | > 100 | > 100 | > 100 | > 100 | > 100 | > 100 | > 100 | > 100 |  |
| Cc1cc2c(cc1Cl)SC(N/N=C(\N)c1ccc(Cl)cc1)=NS2(=O)=O |  |  | > 100 | > 100 | > 100 | > 100 | > 100 | > 100 | > 100 | > 100 | > 100 | > 100 | > 100 | > 100 | > 100 | > 100 | > 100 | > 100 | > 100 | > 100 |
| O=CN1CCN(C(=O)c2cc(Cl)cc(Cl)c2)C1=S |  | 5.64 | 33.8 | 54.5 | 30.6 | 20.7 | 33.4 | 31.2 | 25.5 | 37.5 | 36 | 22.3 | 36 | 39.2 | 35.8 | 29.7 | 31.3 | 32.3 | 27 | 15.4 |
| CC(=O)OCCCCn1cnc2nc(Nc3ccccc3)nc(Cl)c21 | > 100 | > 100 | > 100 | > 100 | > 100 | > 100 | > 100 | > 100 | > 100 |  | > 100 | > 100 | > 100 | > 100 | > 100 | > 100 | > 100 | > 100 | > 100 |  |
| COC(=O)CCC(NC(=O)C(C)NC(=O)COC1C(O)C(OC(=O)CCNc2c3ccccc3nc3cccc([N+](=O)[O-])c23)OC(OCc2ccccc2)C1NC(C)=O)C(N)=O (stereo not drawn) |  |  |  | > 10 | 8.28 | 7.06 |  | > 10 | > 10 | 7.06 | > 10 | > 10 | > 10 |  | > 10 |  | > 10 | > 10 | > 10 |  |
| COC(=O)c1ccc(N=NN(C)COc2ccc(C#N)cc2)cc1 |  | > 100 | > 100 | > 100 | > 100 | > 100 | > 100 |  | > 100 | > 100 | > 100 | > 100 | > 100 | > 100 | > 100 | 50.4 | > 100 | > 100 | > 100 | > 100 |
| Cn1c(=O)c2c(no[n+]2[O-])n(C)c1=O | > 100 | > 100 | 43.9 | > 100 | 94.2 | 40 | > 100 | 40.5 | > 100 |  | 49.4 | > 100 | > 100 |  | > 100 |  | 51.9 | 67.9 | 99.2 | 30 |
| O=C1C2=Cc3ccccc3OC2(O)Oc2cc(O)ccc21 (stereo not drawn) |  | > 100 | > 100 | > 100 | > 100 | > 100 |  | > 100 | 88.7 | > 100 | > 100 | > 100 | > 100 | > 100 | > 100 |  | > 100 | > 100 | > 100 |  |
| CC(=O)Nc1ccc(C(=O)NN2C(=O)C(Cl)C2c2cc(Br)ccc2O)cc1 (stereo not drawn) | > 100 | > 100 | > 100 | > 100 |  | > 100 | > 100 | > 100 | > 100 | > 100 | > 100 |  | > 100 | > 100 | > 100 | > 54.2 | > 100 | > 100 | > 100 | > 100 |
| CCCCCCCCCCCCn1c(=O)cc(NCCCC)c2cc3c(NCCCC)cc(=O)n(CCCCCCCCCCCC)c3nc21 |  | > 100 | > 100 |  |  | > 100 | > 100 | > 100 |  | > 100 | > 100 |  | > 100 | > 100 | > 100 |  | > 100 |  | > 100 | > 100 |
| CN(/N=C/c1cccs1)c1ccc(Cl)cc1[N+](=O)[O-] | > 100 | > 100 |  | > 100 | > 100 |  | > 100 | > 100 | 73.2 | > 100 | 59.5 |  | > 100 | > 100 | > 100 | 54.1 | > 100 | > 100 | > 100 | 69.5 |
| COc1[nH]c(C(Cl)(Cl)Cl)c(Cl)c(=O)c1Cl | > 100 | > 100 | > 100 | > 100 |  | > 100 | > 100 | > 100 | > 100 | > 100 | > 100 | > 100 | > 100 | > 100 | > 100 | > 100 | > 100 | > 100 |  | > 100 |
| CC1(C)C(O)C[C@]23CCC[C@](C)(C[C@@H](O)C12)C3 (stereo partly drawn) | > 100 | > 100 | > 100 | > 100 |  | > 100 | > 100 | > 100 | > 100 |  | > 100 | > 100 | > 100 | > 100 | > 100 | > 100 | > 100 | > 100 | > 100 | > 100 |
